Reference: article doi:10.1101/2021.11.20.466133v3 (biorxiv, 2022)

What was measured:
MsDisA [1] = biological target: T1, MsDisA (Mycolicibacterium smegmatis, UniProt A0R564); conditions: substrate inhibition by ATP; pH 7.5; 37 °C; 5 mM MgCl2
MsDisA [2] = biological target: T1, MsDisA; assay: biochemical
MsPDE = MsPDE (Mycolicibacterium smegmatis, UniProt A0QVM9); assay: HPLC AMP formation, substrate inhibition model; type: biochemical; conditions: substrate inhibition by c-di-AMP; pH 7.5; 5 mM MgCl2
MsPDE, sequence (A0QVM9 1-340): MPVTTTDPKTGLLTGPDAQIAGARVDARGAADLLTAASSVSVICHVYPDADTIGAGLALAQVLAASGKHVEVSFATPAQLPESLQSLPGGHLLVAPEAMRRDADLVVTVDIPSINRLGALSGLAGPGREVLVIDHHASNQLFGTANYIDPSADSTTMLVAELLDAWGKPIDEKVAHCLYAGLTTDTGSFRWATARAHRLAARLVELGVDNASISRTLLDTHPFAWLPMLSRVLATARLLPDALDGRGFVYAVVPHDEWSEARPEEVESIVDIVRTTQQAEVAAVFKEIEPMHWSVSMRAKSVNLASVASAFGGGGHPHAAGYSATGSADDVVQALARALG

T1 sequence (A0R564 whole entry): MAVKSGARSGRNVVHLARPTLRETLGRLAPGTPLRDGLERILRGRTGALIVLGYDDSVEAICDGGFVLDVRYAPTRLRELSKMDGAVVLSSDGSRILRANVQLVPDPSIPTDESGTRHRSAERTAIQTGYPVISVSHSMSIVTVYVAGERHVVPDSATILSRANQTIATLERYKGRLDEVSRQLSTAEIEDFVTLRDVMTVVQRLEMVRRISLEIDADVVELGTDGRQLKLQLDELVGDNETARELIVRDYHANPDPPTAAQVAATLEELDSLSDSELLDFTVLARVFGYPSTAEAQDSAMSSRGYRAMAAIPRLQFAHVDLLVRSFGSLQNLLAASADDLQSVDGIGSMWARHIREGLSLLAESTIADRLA

Row | Ki (MsPDE) [µM] | Compound | Ki (MsDisA [1]) [µM] | Kd (MsDisA [2]) [µM]
1 |  | Nc1ncnc2c1ncn2[C@@H]1O[C@H](COP(=O)(O)OP(=O)(O)OP(=O)(O)O)[C@@H](O)[C@H]1O [ATP] | 1430 | 2.4
2 | 1120 | Nc1ncnc2c1ncn2[C@@H]1O[C@@H]2COP(=O)(O)O[C@H]3[C@@H](O)[C@H](n4cnc5c(N)ncnc54)O[C@@H]3COP(=O)(O)O[C@H]2[C@H]1O [c-di-AMP] |  | 
